Like-named read-outs stand apart in the source and are kept apart here. *: point of attachment. Boc = CC(C)(C)OC(=O)*
Key:
γ-secretase [1] = target: T1, γ-secretase (Homo sapiens, UniProt P49768); experiment: Substrate specificity: FLAG-Aβ secretion by HEK293 cells transfected with FLAG APP C99, anti-FLAG immunoprecipitation/western blot; type: cell-based; conditions: for (i) Aβ secretion rate of HEK293 cells: 24 h, FLAG APP C99, negative control = 100%
Method: (§1) Of families constituting human Alcadein (hereinafter, referred to as Alc) known as a substrate for γ-secretase to colocalize with APP in brain neurons, an artificial Alcα fragment (hereinafter, referred to as Alcα C150) whose first extracellular cleavage site and γ-secretase cleavage site were determined was used to study the substrate specificity of the γ-secretase inhibitor of the present invention. β-Alcα produced from a first cleavage construct of Alcα cannot be quantified by sELISA used in Aβ measurement. Therefore, proteins with an attached FLAG tag at the N termini of first cleavage constructs of Alcα and of C99 were expressed by cells. FLAG-Aβ-like peptides secreted into a medium were collected by immunoprecipitation using anti-FLAG antibodies and detected by western blotting using the antibodies. A specific method thereof is shown below.
(§2) HEK293 cells (ATCC) (1×10^7 cells/10 cm dish) cultured in 6 ml of 10% FCS-containing DMEM (Wako Pure Chemical Industries, Ltd.) were transfected with FLAG APP C99 pcDNA3.1 (the nucleotide sequence of its coding region is shown in SEQ ID NO: 2) (J. Biol. Chem., 2003, 278, 49448-49458 (which was prepared from pcDNA3-APPC99)) or with FLAG Alcα C150 pcDNA3.1 (the nucleotide sequence of its coding region is shown in SEQ ID NO: 3) (J. Biol. Chem., 2004, 279, 24343-24354 (which was the same as pcDNA3AlcαΔE)) using Lipofectamine 2000 (Invitrogen Corp.) according to the protocol included in the reagent. Each inhibitor and a positive control (γ-Secretase Inhibitor IX (DAPT)) (Calbiochem Contact Information) were separately added at a concentration of 0.2 or 2 μmol/L. The same dose of DMSO (Wako Pure Chemical Industries, Ltd.) thereas was added as a negative control. 24 hours later, the culture supernatants were collected, and samples were preliminarily purified using beads (100 μL of 50% (v/v) Protein-G Sepharose (GE Healthcare)). Then, 15 μL of 50% (v/v) anti-FLAG antibody M2 beads (Sigma-Aldrich Corp.) were added thereto, and the samples were incubated at 4° C. for 1 hour. The beads were collected by centrifugation and washed three times with a buffer (10 mM Tris-HCl [pH 8.0], 140 mM NaCl, 0.1% n-octyl glucoside, 0.025% sodium azide), and Aβ and β-Alcα in the medium were collected. The proteins were subjected to SDS-PAGE using a 15% Tris-Tricine gel (Anal Biochem., 1987, 166 (2), 368-379) and then transferred to a membrane. The membrane was boiled for 5 minutes in PBS. Then, anti-FLAG M2 antibodies (5 μg/ml) (Sigma-Aldrich Corp.) were added thereto, and the membrane was incubated, followed by detection using a western blotting detection reagent ECL (GE Healthcare). This signal was quantified using Versa-doc system (Bio-Rad Laboratories, Inc.) to calculate protein secretion rates (the protein secretion rate of the negative control is defined as 100%).

γ-secretase [2] = target: T1, γ-secretase; experiment: Substrate specificity: β-Alcα secretion by HEK293 cells transfected with FLAG Alcα C150, anti-FLAG immunoprecipitation/western blot; type: cell-based; conditions: for (ii) β-Alcα secretion rate of HEK293 cells: 24 h, FLAG Alcα C150, negative control = 100%
Method: as §1, §2

C99 cells = experiment: Cytotoxicity on C99 cells, cell viability by Cell Counting Kit-8; type: cell-based, human; conditions: 24 h
Method: The cytotoxicity of four test substances (TLVM-5, TLVM-7, TLVM-8, and TLVM-9) on the C99 cells was measured using a method shown below.
(§3) In the present test, a medium used for the C99 cells was 500 mL of a Dulbecco's Modified Eagle's Medium (DMEM, Sigma-Aldrich Corp.) supplemented with 55 ml of fetal bovine serum (Biosource), 5.5 ml of MEM non-essential amino acids (Gibco), and 5.5 ml of penicillin/streptomycin (Gibco).
The C99 cells were suspended at a concentration of 0.75×10^5 cells/ml in the medium. The suspension was added at a concentration of 100 μL (0.75×10^4 cells)/well to a 96-well collagen plate (Akita Sumitomo Bakelite Co., Ltd.) and cultured for 2 days. Then, the medium (corresponding to 50 μL/well) in the wells was removed, and a fresh medium was added thereto at a concentration of 30 μL/well. […] Then, the cell viability was measured using Cell Counting Kit-8 (Dojindo Laboratories).

γ-secretase [3] = target: T1, γ-secretase; experiment: Aβ secretion by C99 cells (HEK293 stably expressing APP-C99), γ-secretase inhibitory effect, Aβ ELISA of culture supernatant; type: cell-based; conditions: for IC50: interpolated from the two concentrations that bracket 50%
Text: HEK293 cells (ATCC) were transfected with APP C99 pcDNA3.1 (the nucleotide sequence of its coding region is shown in SEQ ID NO: 1) (J. Biol. Chem., 2003, 278, 49448-49458). Cell strains (C99 cells) confirmed to stably express APP-C99 (artificial APP fragment that originally lacked a polypeptide portion to be cleaved by α- or β-secretase at the first stage in the two-stage reaction of Aβ production from APP) were used to study the γ-secretase inhibitory effects of four test substances (TLVM-5, TLVM-7, TLVM-8, and TLVM-9) in vitro.
as §3
The C99 cells were suspended at a concentration of 5×10^4 cells/ml in the medium. The suspension was added at a concentration of 1 ml (5×10^4 cells)/well to a 24-well collagen plate (Akita Sumitomo Bakelite Co., Ltd.) and cultured for 3 days. Then, the medium in the wells was removed, and the wells were washed with a medium (1 ml/well). The medium was removed, and a fresh medium was then added thereto at a concentration of 0.4 ml/well. The cells were exposed to the test substances and positive controls and incubated for 24 hours, and the culture supernatants were collected. The positive controls used were L-685,458 (CALBIOCHEM) and Boc-Leu-Val-Met-Leu-OMe (hereinafter, referred to as LVML-1) disclosed in Example 1 of Patent Document 1 (WO03/091278). The exposure concentrations were set to four concentrations, 0.3, 1, 3, and 10 μmol/L, for all the test substances and the positive controls. The concentrations of Aβ (1-40) and Aβ (1-42) in the culture supernatants were measured using Human Amyloid β (1-40) (N) Assay Kit (L)-IBL and Human Amyloid β (1-42) (N) Assay Kit (L)-IBL (Immuno-Biological Laboratories, Co., Ltd.). The amounts of Aβ (1-40) and Aβ (1-42) secreted were calculated by subtracting the concentrations of Aβ (1-40) and Aβ (1-42) originally contained in the medium before the C99 cell inoculation, from the measured concentrations thereof, respectively. Moreover, when the Aβ secretion rate of a negative control (5% DMSO-containing medium, resulting in 1% DMSO at the final concentration) is defined as 100%, Aβ secretion rates at each concentration of the test substances and the positive controls were calculated.
The TLVM-5, TLVM-7, TLVM-8, and TLVM-9 confirmed in Example 8 to have strong inhibitory activities against γ-secretase activities were subjected to an additional experiment at low concentrations (exposure concentrations were set to three concentrations, […], for the test substances and to four concentrations, 0.1, 0.3, 1, and 3 μmol/L, for the positive control).
Moreover, Aβ secretion rates at two concentrations of the test substance that bracket the concentration at which Aβ secretion was inhibited by 50% (IC50) were used to calculate IC50 according to the following equation: IC50:10^[LOG(A/B)*(50−C)/(D−C)+LOG(B)],wherein
A: of the two points that bracket 50% inhibition, the higher concentration of the test substance,
B: of the two points that bracket 50% inhibition, the lower concentration of the test substance,
C: secretion rate (%) at the concentration B, and
D: secretion rate (%) at the concentration A.

[4] = Example 8, exposure 0.3 μmol/L, 24 h
[5] = Example 8, exposure 0.3 μmol/L, 24 h, negative control = 100%
[6] = Example 8, exposure 1 μmol/L, 24 h
[7] = Example 8, exposure 3 μmol/L, 24 h
[8] = Example 8, exposure 10 μmol/L, 24 h

Compound | (i)/(ii) ratio, Aβ / β-Alcα secretion rates (γ-secretase [1]; 2 μmol/L) | (i) Aβ secretion rate of HEK293 cells (γ-secretase [1]; 2 μmol/L) [%] | (ii) β-Alcα secretion rate of HEK293 cells (γ-secretase [2]; 2 μmol/L) [%] | Aβ (1-42) secretion rate of C99 cells (γ-secretase [3]; [4]) [%] | Aβ [(1-40) + (1-42)] secretion rate of C99 cells (γ-secretase [3]; [4]) [%] | Aβ (1-40) secretion rate of C99 cells (γ-secretase [3]; [5]) [%] | Aβ (1-40) secretion rate of C99 cells (γ-secretase [3]; [6]) [%] | Aβ (1-42) secretion rate of C99 cells (γ-secretase [3]; [6]) [%] | Aβ [(1-40) + (1-42)] secretion rate of C99 cells (γ-secretase [3]; [6]) [%] | Aβ (1-40) secretion rate of C99 cells (γ-secretase [3]; [7]) [%] | Aβ (1-42) secretion rate of C99 cells (γ-secretase [3]; [7]) [%] | Aβ [(1-40) + (1-42)] secretion rate of C99 cells (γ-secretase [3]; [7]) [%] | Aβ (1-40) secretion rate of C99 cells (γ-secretase [3]; [8]) [%] | Aβ (1-42) secretion rate of C99 cells (γ-secretase [3]; [8]) [%] | Aβ [(1-40) + (1-42)] secretion rate of C99 cells (γ-secretase [3]; [8]) [%] | further results
C[C@H](NC(=O)Cc1cc(F)cc(F)c1)C(=O)N[C@H](C(=O)OC(C)(C)C)c1ccccc1 [DAPT, reference compound] | 1.26 | 20 | 16 |  |  |  |  |  |  |  |  |  |  |  |  | (i)/(ii) ratio, Aβ / β-Alcα secretion rates (γ-secretase [1]; 0.2 μmol/L): 0.35; (i) Aβ secretion rate of HEK293 cells (γ-secretase [1]; 0.2 μmol/L): 8%; (ii) β-Alcα secretion rate of HEK293 cells (γ-secretase [2]; 0.2 μmol/L): 23%
CC(C)C[C@H](NC(=O)[C@H](Cc1ccccc1)C[C@@H](O)[C@H](Cc1ccccc1)NC(=O)OC(C)(C)C)C(=O)N[C@@H](Cc1ccccc1)C(N)=O [L-685, 458, reference compound] |  |  |  | 96 | 101 | 101 | 68 | 70 | 68 | 38 | 49 | 39 | 9 | 24 | 9 | Cell viability of C99 cells (C99 cells; exposure 0.3 μmol/L): 133%; Cell viability of C99 cells (C99 cells; exposure 1 μmol/L): 125%; Cell viability of C99 cells (C99 cells; exposure 3 μmol/L): 110%; Cell viability of C99 cells (C99 cells; exposure 10 μmol/L): 99%; Aβ (1-40) secretion rate of C99 cells (γ-secretase [3]; Example 9, exposure 0.1 μmol/L): 114%; Aβ (1-42) secretion rate of C99 cells (γ-secretase [3]; Example 9, exposure 0.1 μmol/L): 97%; Aβ [(1-40) + (1-42)] secretion rate of C99 cells (γ-secretase [3]; Example 9, exposure 0.1 μmol/L): 113%; Aβ (1-40) secretion rate of C99 cells (γ-secretase [3]; Example 9, exposure 0.3 μmol/L): 90%; Aβ (1-42) secretion rate of C99 cells (γ-secretase [3]; Example 9, exposure 0.3 μmol/L): 91%; Aβ [(1-40) + (1-42)] secretion rate of C99 cells (γ-secretase [3]; Example 9, exposure 0.3 μmol/L): 90%; Aβ (1-40) secretion rate of C99 cells (γ-secretase [3]; Example 9, exposure 1 μmol/L): 72%; Aβ (1-42) secretion rate of C99 cells (γ-secretase [3]; Example 9, exposure 1 μmol/L): 87%; Aβ [(1-40) + (1-42)] secretion rate of C99 cells (γ-secretase [3]; Example 9, exposure 1 μmol/L): 73%; Aβ (1-40) secretion rate of C99 cells (γ-secretase [3]; Example 9, exposure 3 μmol/L): 32%; Aβ (1-42) secretion rate of C99 cells (γ-secretase [3]; Example 9, exposure 3 μmol/L): 8%; Aβ [(1-40) + (1-42)] secretion rate of C99 cells (γ-secretase [3]; Example 9, exposure 3 μmol/L): 31%; IC50 (γ-secretase [3]; Example 9, read-out: IC50, Aβ (1-40) secretion of C99 cells): 1800 nM; IC50 (γ-secretase [3]; Example 9, read-out: IC50, Aβ (1-42) secretion of C99 cells): 1700 nM
CSCC[C@H](NC(=O)[C@H](C)NC(=O)[C@H](CC(C)C)C[C@@H](O)[C@@H](NC(=O)OC(C)(C)C)[C@@H](C)O)C(=O)NCc1ccccc1 [TLVM-10, [5S-(tert-butoxycarbonylamino)-4R,6R-dihydroxy-2R-(2-methylpropyl)heptanoyl]-L-alanyl-L-methionine benzylamide] | 0.39 | 37 | 94 |  |  |  |  |  |  |  |  |  |  |  |  | cleavage of APP-C99, in words (γ-secretase [1]; 2 μmol/L): specifically inhibited; γ cleavage of the Alcα-C150, in words (γ-secretase [2]; 2 μmol/L): did not inhibit
Boc-Leu-Val-Met-Leu-OMe (Boc-LVML-OMe; SMILES COC(=O)[C@H](CC(C)C)NC(=O)[C@H](CCSC)NC(=O)[C@@H](NC(=O)[C@H](CC(C)C)NC(=O)OC(C)(C)C)C(C)C) [LVML-1, reference compound] |  |  |  | 95 | 138 | 140 | 112 | 78 | 110 | 106 | 104 | 105 | 83 | 61 | 82 | 
